Laboratory results from paper PMC8620242 (Journal of Advanced Research, 2021).

What was measured:
SARS-CoV-2 spike protein = SARS-CoV-2 spike protein (Severe acute respiratory syndrome coronavirus 2, UniProt P0DTC2); test: biochemical; format: binding
SARS-CoV-2 pseudovirus = format: cell-based
[1] = molecular target: RBD of SARS-CoV-2 spike protein (Severe acute respiratory syndrome coronavirus 2, UniProt P0DTC2); test: biochemical; format: binding
nsp7 = nsp7 (Severe acute respiratory syndrome coronavirus 2, UniProt P0DTD1); test: biochemical; format: binding, SARS-CoV-2
nsp8 = nsp8 (Severe acute respiratory syndrome coronavirus 2, UniProt P0DTD1); test: biochemical; format: binding, SARS-CoV-2
in vivo [2] = test: in vivo; set-up: species or system rats; conditions: male, Sprague-Dawley, rat, po, 40 mg/kg
[3] = male, Sprague-Dawley, rat, in vivo
in vivo [4] = conditions: male, Sprague-Dawley, rat, po, 40 mg/kg
Vero E6 cells = format: cell-based; conditions: CCK-8
ACE2 = conditions: read-out: KD for binding to ACE2; cited from earlier work

Q: What does the source list for `CC1(C)[C@@H](O)CC[C@]2(C)[C@H]3C(=O)C=C4[C@@H]5C[C@@](C)(C(=O)O)CC[C@]5(C)CC[C@@]4(C)[C@]3(C)CC[C@@H]12` [GA, glycyrrhetinic acid]?
A: IC50 (SARS-CoV-2 spike protein): 10.9 µM; inhibition at 10 µM (SARS-CoV-2 spike protein; read-out: inhibition rate against SARS-CoV-2 spike protein by ELISA): 51.9%; inhibitory activity in blocking, attachment and entry procedures (SARS-CoV-2 pseudovirus): significant inhibitory activities; Kd [1]: 2.33 µM; Kd (nsp7): 384 µM; Kd (nsp8): 91.2 µM; Tmax (in vivo [2]): 2 h; half-life (in vivo [2]): 18.2 h; maximum plasma concentration [3]: 5.68 µM; half-life (in vivo [4]): 9.91 h

Q: Which results are given for `C=C(C)[C@@H]1CC[C@]2(C(=O)O)CC[C@]3(C)[C@H](CC[C@@H]4[C@@]5(C)CC[C@H](O)C(C)(C)[C@@H]5CC[C@]43C)[C@@H]12` [betulinic acid]?
A: IC50 (SARS-CoV-2 spike protein): 15.1 µM; cytotoxicity (Vero E6 cells): remarkable cytotoxicity

Q: Which “activity in the pseudovirus system” value (SARS-CoV-2 pseudovirus) does the source give for `CC1(C)[C@@H](O[C@H]2O[C@H](C(=O)O)[C@@H](O)[C@H](O)[C@H]2O[C@@H]2O[C@H](C(=O)O)[C@@H](O)[C@H](O)[C@H]2O)CC[C@]2(C)[C@H]3C(=O)C=C4[C@@H]5C[C@@](C)(C(=O)O)CC[C@]5(C)CC[C@@]4(C)[C@]3(C)CC[C@@H]12` [GA-gg, glycyrrhizic acid] here?
A: Its value is “weak activities”.

Q: What about the “binding to RBD” value ([1]; SPR) of the same compound?
A: Its value is “very weak bindings”.

Q: And the maximum plasma concentration [3]?
A: The maximum plasma concentration was 10.23 µM.

Q: Which results are given for `C[C@H]1[C@H](C)CC[C@]2(C(=O)O)CC[C@]3(C)C(=CC[C@@H]4[C@@]5(C)CC[C@H](O)C(C)(C)[C@@H]5CC[C@]43C)[C@H]12` [ursolic acid]?
A: IC50 (SARS-CoV-2 spike protein): 9 µM; cytotoxicity (Vero E6 cells): remarkable cytotoxicity

Q: Which Kd (ACE2) does the source give for dalbavacin here?
A: The Kd was 0.147 µM.
